Source: patent publication US20220274947A1, “NOVEL HETEROARYL-TRIAZOLE COMPOUNDS AS PESTICIDES” (Bayer Aktiengesellschaft, priority 2019, published 2022)

Key:
Type in all cases: in vivo
[1] = system: Meloidogyne incognita; assay: Meloidogyne incognita test; details: application rate 20 ppm, salad seedlings, after 14 days
Description: Meloidogyne incognita—Test Solvent: 125.0 parts by weight of acetone
To produce a suitable preparation of active compound, 1 part by weight of active compound is mixed with the stated amount of solvent, and the concentrate is diluted with water to the desired concentration.
Vessels are filled with sand, a solution of the active ingredient, a suspension containing eggs and larvae of the southern root-knot nematode (Meloidogyne incognita) and salad seeds. The salad seeds germinate and the seedlings grow. Galls develop in the roots.
After 14 days the nematicidal activity is determined based on the percentage of gall formation. 100% means no galls were found and 0% means the number of galls found on the roots of the treated plants was equal to that in untreated control plants.

[2] = system: Rhipicephalus microplus; assay: Rhipicephalus (Boophilus) microplus injection test (BOOPMI Inj); details: 168 h, injection into adult engorged female ticks, egg deposition after 7 days, read-out: activity (efficacy: 100% means all eggs are infertile); for pest or weed control at 0.02 mg: application rate 20 μg/tick; for pest or weed control at 0.004 mg: application rate 4 μg/tick
Outline: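 Compound in DMSO, 1 μL, injected abdominally into five adult engorged females, which were then held in a climate chamber. Read-out is egg fertility, scored from deposition at 7 days, with unclear eggs followed to hatching (~42 days); 0% means all eggs fertile, 100% all infertile.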

[3] = system: Rhipicephalus microplus; assay: Rhipicephalus (Boophilus) microplus in-vitro contact test, larval cattle tick, strain Parkhurst (BOOPMI Cont); details: application rate 5 μg/cm^2 (=500 g/ha), tick larvae, after 48 hours, read-out: activity (efficacy: 100% means all larvae are dead or moribund)
Outline: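 After 48 h at 27° C. and 85% humidity, percent dead or moribund larvae was scored from negative geotactic behaviour. Larvae (20-50, Parkhurst strain, synthetic pyrethroid-resistant) were exposed in tubes coated with compound from acetone, 900 ppm corresponding to 5 μg/cm^2.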

[4] = system: Spodoptera frugiperda; assay: Spodoptera frugiperda spray test; details: in Zea mays, 168 h, read-out: activity (mortality)
Outline: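 Percent kill of fall armyworm caterpillars was assessed 7 days after infesting dried, treated maize leaf sections. Treatment was a spray of compound in acetone/dimethylformamide, diluted with water containing emulsifier at 1000 ppm.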

[5] = system: Ctenocephalides felis; assay: Ctenocephalides felis oral test (CTECFE Oral); details: 48 h, read-out: activity (mortality)
Outline: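 Percent mortality was recorded 2 days after roughly 20 adult Ctenocephalides felis fed on treated cattle blood. The blood was warmed to 37 °C beneath a parafilm membrane, with the fleas kept at room temperature. Compound was dissolved in DMSO and diluted into the blood to test concentration.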

[6] = system: Diabrotica balteata; assay: Diabrotica balteata spray test; details: 168 h, wheat seeds, larvae, after 7 days, read-out: activity (efficacy: 100% means all seedlings have grown up like in the untreated, uninfected control); for pest or weed control at 32 µg/disc, 100 g/ha: application rate 100 g/ha (=32 μg/well); for pest or weed control at 160 µg/disc, 500 g/ha: application rate 500 g/ha (=160 μg/well)
Outline: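 Efficacy (%) was scored 7 days after spraying, with 100% meaning growth like the untreated, uninfected control and 0% meaning no seedling grew. Spray solutions of compound in acetone/DMF with emulsifier-containing water went onto 1-day-germinated wheat seeds, and each unit was then infested with 10-20 banded cucumber beetle larvae.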

[7] = system: Rhipicephalus sanguineus; assay: Rhipicephalus sanguineus in-vitro contact test, adult brown dog ticks (RHIPSA Cont); details: 48 h, after 48 hours, read-out: activity (efficacy: 100% means all ticks are dead or moribund); for pest or weed control at 5 µg/cm2, 500 g/ha: application rate 5 μg/cm^2 (=500 g/ha)
Outline: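 Compound in acetone (9 mg/mL stock, diluted to test concentration) is coated onto inner walls of glass tubes by rotation for 2 h at 30 rpm. Efficacy is read after 48 h: ticks are tapped down and held on a 45-50° C plate for at most 5 min, and immotile or uncoordinated ones that fail to climb away count as dead or moribund.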

[8] = system: Aedes aegypti strain MONHEIM; assay: Aedes aegypti test (AEDSAE surface treatment & contact assay); details: exposure 30 minutes, 24 hours after contact, read-out: efficacy (mortality); for mortality at 20 mg/m2: surface concentration 20 mg/m^2, glazed tile; for mortality at 4 mg/m2: surface concentration 4 mg/m^2, glazed tile
Outline: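 Compound dissolved in acetone (2 mg/ml) with 2000 ppm rapeseed oil methyl ester, pipetted onto glazed tile and dried. Adult mosquitoes exposed on the surface for 30 min; percent mortality scored 24 h after contact.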

[9] = system: Musca domestica strain WHO—N; assay: Musca domestica test (MUSCDO surface treatment & contact assay); details: surface concentration 20 mg/m^2, glazed tile, exposure 30 minutes, 24 hours after contact, read-out: efficacy (mortality)
Outline: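 Compound dissolved in acetone (2 mg/ml) with 2000 ppm rapeseed oil methyl ester and pipetted onto glazed tile; after acetone evaporation, adult flies exposed to dried surface for 30 minutes. Mortality (%) scored 24 hours after contact.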

[10] = system: Myzus persicae; assay: Myzus persicae oral test; details: 120 h, read-out: activity (mortality)
Outline: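 Percent mortality was recorded at day 5, where 0% means no aphids killed. Compound prepared from an acetone concentrate diluted in water and combined with IPL41 medium containing sugar was offered to mixed-stage green peach aphids, which sucked it through a parafilm seal.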

[11] = system: Myzus persicae; assay: Myzus persicae spray test; details: in Brassica rapa, foliar, 120 h, read-out: activity (mortality), application rate 100 g/ha, spray, Chinese cabbage leaf disks, after 5 days
Outline: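 Aphid mortality in % was assessed 5 days after spraying; leaf disks of Brassica pekinensis carrying mixed-instar green peach aphids were treated. Spray preparation: active compound in acetone plus dimethylformamide, diluted with emulsifier-containing water (1000 ppm).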

[12] = system: Blattella germanica strain PAULINIA; assay: Blattella germanica test (BLTTGE surface treatment & contact assay); details: surface concentration 20 mg/m^2, glazed tile, exposure 30 minutes, 24 hours after contact, read-out: efficacy (mortality)
Description: Blattella germanica Test (BLTTGE Surface Treatment & Contact Assay) Solvent: Aceton+2000 ppm rapeseed oil methyl ester (RME)
In order to produce a sufficient, active ingredient containing solution it is necessary to solve the test compound in the solvent-mix (acetone at 2 mg/ml/RME 2000 ppm). This solution is pipetted onto a glazed tile and after evaporation of the acetone, adult animals of the species Blattella germanica strain […] are placed onto the dried surface. The exposure time is 30 minutes. Mortality in percent (%) is determined 24 hours after contact of the insects to the treated surface. 100% mortality means that all tested insects are dead, whereas 0% means that no insect died.

[13] = system: Ctenocephalides felis; assay: Ctenocephalides felis in-vitro contact test, adult cat flea (CTECFE Cont); details: application rate 5 μg/cm^2 (=500 g/ha), adult cat fleas, after 48 hours, read-out: activity (efficacy: 100% means all fleas are dead or moribund)
Outline: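 Efficacy, as percent of fleas dead or moribund, was scored 48 h after adults (5-10 per tube) were placed in glass tubes whose walls carried dried compound at 5 μg/cm^2 (900 ppm solution). Moribund meant failing to climb away from a 45-50° C. hot plate within 5 min.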

[14] = system: Tetranychus urticae; assay: Tetranychus urticae spray test, OP-resistant; details: foliar, 144 h, application rate 500 g/ha, French bean leaf disks, after 6 days
Description: Tetranychus urticae—Spray Test OP-Resistant Solvent: 78.0 parts by weight acetone • 1.5 parts by weight dimethylformamide Emulsifier: alkylarylpolyglycol ether
To produce a suitable preparation of active compound, 1 part by weight of active compound is mixed with the stated amount of solvents and is diluted with water, containing an emulsifier concentration of 1000 ppm, to the desired concentration. Further test concentrations are prepared by dilution with emulsifier containing water.
French bean (Phaseolus vulgaris) leaf disks infected with all instars of the two spotted spidermite (Tetranychus urticae), are sprayed with a preparation of the active ingredient of the desired concentration.
After 6 days mortality in % is determined. 100% means all spider mites have been killed and 0% means none of the spider mites have been killed.

[15] = system: Anopheles funestus strain FUMOZ-R; assay: Anopheles funestus test (ANPHFU surface treatment & contact assay); details: surface concentration 20 mg/m^2, glazed tile, exposure 30 minutes, 24 hours after contact, read-out: efficacy (mortality)
Description: Anopheles funestus Test (ANPHFU Surface Treatment & Contact Assay) Solvent: Aceton+2000 ppm rapeseed oil methyl ester (RME)
In order to produce a sufficient, active ingredient containing solution it is necessary to solve the test compound in the solvent-mix (acetone at 2 mg/ml/RME 2000 ppm). This solution is pipetted onto a glazed tile and after evaporation of the acetone, adult mosquitoes of the species Anopheles funestus strain FUMOZ-R (Hunt et al., Med. Vet. Entomol. 2005 September; 19(3): 271-275) are placed onto the dried surface. The exposure time is 30 minutes. Mortality in percent (%) is determined 24 hours after contact of the insects to the treated surface. 100% mortality means that all tested insects are dead, whereas 0% means that no insect died.

SMILES: CCOc1nc([C@H](C)NC(=O)c2cc(Cl)cc(C(F)(F)F)c2)n(-c2ccc(C#N)cn2)n1 [I-12]
- nematicidal activity (100% means no galls were found) [1]: 90%
- pest or weed control at 0.02 mg [2]: 100%
- pest or weed control at 5 µg/cm2 [3]: 100%
- mortality at 100 g/ha [4]: 100%
- mortality at 500 g/ha [4]: 100%
- mortality at 100 ppm [5]: 90%
- pest or weed control at 32 µg/disc, 100 g/ha [6]: 100%
- pest or weed control at 160 µg/disc, 500 g/ha [6]: 100%

SMILES: CCOc1nc([C@H](C)NC(=O)c2cc(C(F)(F)F)cc(C(F)(F)F)c2)n(-c2ccc(C#N)cn2)n1 [I-13]
- nematicidal activity (100% means no galls were found) [1]: 90%
- pest or weed control at 0.004 mg [2]: 100%
- pest or weed control at 0.02 mg [2]: 100%
- pest or weed control at 5 µg/cm2 [3]: 100%
- mortality at 100 g/ha [4]: 100%
- mortality at 500 g/ha [4]: 100%
- mortality at 100 ppm [5]: 100%
- pest or weed control at 32 µg/disc, 100 g/ha [6]: 100%
- pest or weed control at 160 µg/disc, 500 g/ha [6]: 100%

SMILES: CC(C)c1nc([C@H](C)NC(=O)c2cc(Cl)cc(Br)c2)n(-c2ccc(C#N)cn2)n1 [I-19]
- nematicidal activity (100% means no galls were found) [1]: 90%
- pest or weed control at 0.004 mg [2]: 100%
- pest or weed control at 0.02 mg [2]: 100%
- pest or weed control at 5 µg/cm2 [3]: 100%
- mortality at 100 g/ha [4]: 100%
- pest or weed control at 1 µg/cm2, 100 g/ha ([7]; application rate 1 μg/cm^2 (=100 g/ha)): 100%
- pest or weed control at 5 µg/cm2, 500 g/ha [7]: 100%
- mortality at 100 ppm [5]: 100%
- mortality at 20 mg/m2 [8]: 80 to 100%
- pest or weed control at 32 µg/disc, 100 g/ha [6]: 100%

SMILES: C[C@H](NC(=O)c1cc(Cl)cc(OC(F)(F)F)c1)c1ncnn1-c1cc(NC(=O)C2CC2)ccn1 [II-25]
- mortality at 20 mg/m2 [9]: 80 to 100%
- nematicidal activity (100% means no galls were found) [1]: 90%
- pest or weed control at 0.004 mg [2]: 100%
- pest or weed control at 0.02 mg [2]: 100%
- pest or weed control at 5 µg/cm2 [3]: 100%
- mortality at 100 g/ha [4]: 100%
- mortality at 500 g/ha [4]: 100%
- mortality at 4 ppm [10]: 100%
- pest or weed control at 5 µg/cm2, 500 g/ha [7]: 80%
- mortality at 4 mg/m2 [8]: 80 to 100%
- mortality at 20 mg/m2 [8]: 80 to 100%
- pest or weed control at 160 µg/disc, 500 g/ha [6]: 80%

SMILES: CC(=O)N(C)c1ccc(-n2ncnc2[C@H](C)NC(=O)c2cc(Cl)cc(C(F)(F)F)c2)nc1 [II-80]
- mortality at 100 g/ha [11]: 90%
- mortality at 20 mg/m2 [12]: 80 to 100%
- pest or weed control at 5 µg/cm2 [13]: 100%
- mortality at 500 g/ha [14]: 90%
- pest or weed control at 0.004 mg [2]: 80%
- pest or weed control at 5 µg/cm2 [3]: 100%
- mortality at 0.8 ppm [10]: 100%
- mortality at 20 mg/m2 [15]: 80 to 100%
- mortality at 100 ppm [5]: 100%
- mortality at 4 mg/m2 [8]: 80 to 100%
- mortality at 20 mg/m2 [8]: 80 to 100%
